{"source": "patent US20120183536A1", "about": "“METHODS OF USING CORTICOTROPIN-RELEASING FACTOR FOR THE TREATMENT OF CANCER” (priority 2009, published 2012)", "key": {"[1]": {"system": "U87 Fluc brain tumor", "source_text": "The results were obtained with SCID mice bearing brain tumors produced by injection with the human glioblastoma cell line U87 Flue. The U87 Flue cell line was created by stably transducing U87 cells with a lentiviral construct containing the luc gene."}, "[2]": {"system": "MX-1 human breast carcinoma", "test": "MX-1 human breast carcinoma xenograft in nu/nu mice, tumor volume", "assay_type": "in vivo", "experimental": "(§1) In another study, 8-12 week old female nu/nu mice were injected with 1 mm^3 tumor fragments of MX-1 human breast carcinoma subcutaneously. Once tumors developed and reached an average size of 80-120 mg, mice received administration of: (1) saline (control) (twice daily, subcutaneous); (2) CRF (100 μg/kg) (twice daily, subcutaneous); (3) CRF (200 μg/kg) (twice daily, subcutaneous); (4) bevacizumab (Avastin®) (5 mg/kg) (twice weekly, intraperitoneal); or (5) CRF (200 μg/kg) (twice daily, subcutaneous) and bevacizumab (Avastin®) (5 mg/kg) (twice weekly, intraperitoneal) (FIG. 13A). Body weight and tumor volume were measured twice a week until the endpoint of the experiment, i.e., the earlier of either 60 days or achieving a tumor weight of 1.5 g.)."}, "[3]": {"system": "human Non-Small Cell Lung Carcinoma (NSCLC) tumor cell lines", "test": "human Non-Small Cell Lung Carcinoma xenograft in nu/nu mice, tumor volume", "assay_type": "in vivo", "experimental": "as §1, with “a second” for “another”, “of” for “of MX-1”, “Non-Small Cell Lung Carcinoma (NSCLC) tumor cell lines” for “breast carcinoma”, “12A).” for “13A).”, “2” for “1.5”"}, "[4]": {"system": "Colo205 human colon tumor cells", "test": "Colo205 human colon tumor xenograft in nu/nu mice, tumor volume", "assay_type": "in vivo", "experimental": "In one study, 8-12 week old female nu/nu mice were injected with 1×10^6 Colo205 human colon tumor cells subcutaneously. Once tumors developed and reached an average size of 100-150 mg, mice received administration of: (1) saline (control) (twice daily, subcutaneous); (2) CRF (100 μg/kg) (twice daily, subcutaneous); (3) CRF (200 μg/kg) (twice daily, subcutaneous); (4) bevacizumab (Avastin®) (5 mg/kg) (twice weekly, intraperitoneal); or (5) CRF (200 μg/kg) (twice daily, subcutaneous) and bevacizumab (Avastin®) (5 mg/kg) (twice weekly, intraperitoneal) (FIG. 11A). Body weight and tumor volume were measured twice a week until the endpoint of the experiment, i.e., the earlier of either 60 days or a tumor volume of 1000 mm^3."}, "[5]": {"system": "brain tumor in metastatic patients", "test": "Clinical study: metastatic patients, brain tumor size by MRI and survival", "assay_type": "in vivo, human", "details": "2 mg/day s.c."}, "[6]": {"system": "malignant brain tumor", "test": "Clinical study: patients with malignant brain tumor, tumor size by MRI and survival", "assay_type": "in vivo, human", "experimental": "Patients with malignant brain tumor were treated with 2 mg/day (1 mg dose, twice daily) of either human CRF subcutaneously. […] Additionally, of the 30 patients who had received treatment for at least 6 months, 10 experienced a decrease in tumor size."}, "[7]": {"details": "bevacizumab 5 mg/kg twice weekly, intraperitoneal"}, "[8]": {"details": "CRF 100 or 200 μg/kg twice daily, subcutaneous"}, "[9]": {"details": "low dose of CRF, 30 μg/kg s.c. twice daily"}, "[10]": {"details": "of the 3 metastatic patients of FIG. 10"}}, "note": "Read-outs that look alike come from different tables or passages of the source.", "data": [{"molecule": "O=NN(CCCl)C(=O)NCCCl", "note": "[BiCNU, carmustine, reference compound]", "values": [{"measurement": "brain tumor progression (photon emission)", "setting": "[1]; BiCNU 20 mg/kg intraperitoneally 5 days/week", "result": "continued to grow"}]}, {"molecule": "Cn1nnc2c(C(N)=O)ncn2c1=O", "note": "[TMZ, temozolomide, reference compound]", "values": [{"measurement": "mice still alive at the end of the 80-day study period", "setting": "[1]; TMZ 40 mg/kg intraperitoneally 5 days/week", "result": 40, "unit": "%"}]}, {"molecule": "bevacizumab (Avastin®): angiogenesis inhibitor bevacizumab (Avastin®) [reference compound]", "values": [{"measurement": "tumor volume compared to control", "setting": "[2]; [7]", "result": "reduction in tumor volume"}, {"measurement": "tumor volume compared to control", "setting": "[3]; [7]", "result": "reduction in tumor volume"}, {"measurement": "tumor volume compared to control", "setting": "[4]; [7]", "result": "reduction in tumor volume"}]}, {"molecule": "corticorelin acetate [CRF]", "values": [{"measurement": "tumor volume compared to control", "setting": "[2]; [8]", "result": "reduction in tumor volume"}, {"measurement": "tumor volume compared to control", "setting": "[3]; [8]", "result": "reduction in tumor volume"}, {"measurement": "brain tumor progression (photon emission)", "setting": "[1]; [9]", "result": "did not progress or progressed more slowly"}, {"measurement": "mean survival time (comparison)", "setting": "[1]; [9]", "result": "between mice, that were administered a high dose of CRF, and mice that had received no treatment or were administered dexamethasone"}, {"measurement": "mice still alive at the end of the 80-day study period", "setting": "[1]; [9]", "result": 60, "unit": "%"}, {"measurement": "survival compared with untreated, dexamethasone or chemotherapeutic agents", "setting": "[1]; [9]", "result": "survived longer"}, {"measurement": "response of metastatic patients to treatment", "setting": "[5]", "result": "responded very favorably"}, {"measurement": "metastatic patients exhibiting survival beyond the projected 3-6 months", "setting": "[5]; [10]", "result": 3, "unit": "patients"}, {"measurement": "metastatic patients showing a reduction in tumor size at the last timepoint measured", "setting": "[5]; [10]", "result": 2, "unit": "patients"}, {"measurement": "tumor volume compared to control", "setting": "[4]; [8]", "result": "reduction in tumor volume"}, {"measurement": "survival after CRF treatment, some patients", "setting": "[6]; FIGS. 8 and 9", "result": "1-2 years"}, {"measurement": "patients exhibiting a reduction in tumor size at the last time point measured", "setting": "[6]; of the 10 patients of FIG. 9, 2 mg/day s.c.", "result": 8, "unit": "patients"}, {"measurement": "patients exhibiting a reduction in tumor size", "setting": "[6]; of the 20 patients of FIG. 8, 2 mg/day (1 mg twice daily) s.c.", "result": 6, "unit": "patients"}, {"measurement": "patients exhibiting a maintenance in tumor size", "setting": "[6]; of the 20 patients of FIG. 8, 2 mg/day s.c.", "result": 5, "unit": "patients"}, {"measurement": "patients exhibiting a reduction in tumor size by over 50%", "setting": "[6]; of the 20 patients of FIG. 8, after 9 months of treatment, 2 mg/day s.c.", "result": 3, "unit": "patients"}, {"measurement": "patients experiencing a decrease in tumor size", "setting": "[6]; of the 30 patients treated for at least 6 months, 2 mg/day s.c.", "result": 10, "unit": "patients"}, {"measurement": "survival of the overwhelming majority of patients", "setting": "[6]; projected survival 3-6 months, FIGS. 8 and 9", "result": "live well beyond the projected 3-6 months"}, {"measurement": "reduction in tumor size", "setting": "[6]; two of the patients, 2 mg/day s.c.", "result": "around 90%"}]}]}
